Molecular target: T1, Oxytocin Receptor (Homo sapiens, UniProt P30559)
T1 sequence (P30559 1-389): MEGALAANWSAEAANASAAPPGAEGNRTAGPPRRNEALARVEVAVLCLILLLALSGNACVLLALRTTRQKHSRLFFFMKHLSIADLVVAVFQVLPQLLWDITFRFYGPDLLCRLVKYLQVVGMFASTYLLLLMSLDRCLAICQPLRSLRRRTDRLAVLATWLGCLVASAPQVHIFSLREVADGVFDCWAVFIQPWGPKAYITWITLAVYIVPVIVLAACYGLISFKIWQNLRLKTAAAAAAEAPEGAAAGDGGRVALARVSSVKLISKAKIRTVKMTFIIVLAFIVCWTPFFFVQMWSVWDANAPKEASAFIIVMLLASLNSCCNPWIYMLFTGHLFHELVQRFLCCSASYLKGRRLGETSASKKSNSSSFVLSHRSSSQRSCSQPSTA
Test: Oxytocin Receptor Beta-lactamase assay (as detailed in WO 2004/020414)
Format: cell-based
Details: read-out: Ki value (Oxytocin antagonist activity)
From the text: A suitable assay for determining the Oxytocin antagonist activity of a compound is detailed in International Patent Application WO 2004/020414.

Row | SMILES | Ki [µM]
1 | COc1ccc(-n2c(C)nnc2-c2ccc(-c3ccccc3OC)cc2)c(OCCN2CCOCC2)n1 [Example 2, 4-[2-({6-Methoxy-3-[3-(2′-methoxybiphenyl-4-yl)-5-methyl-4H-1,2,4-triazol-4-yl]pyridin-2-yl}oxy)ethyl]morpholine] | 0.0112
2 | COc1ccc(-n2c(C)nnc2-c2ccc(-c3ccccc3OC)cc2OC)cc1 [Example 10, 3-(2′,3-Dimethoxybiphenyl-4-yl)-4-(4-methoxyphenyl)-5-methyl-4H-1,2,4-triazole] | 0.0146
3 | COc1ccc(-n2c(Cn3nccn3)nnc2-c2ccc(-c3ccccc3OC)cc2)cc1 [Example 25] | 0.0117
4 | COCCOc1nc(OC)ccc1-n1c(C)nnc1-c1ccc(-c2ccccc2OC)cc1 [Example 32, 6-Methoxy-3-[3-(2′-methoxybiphenyl-4-yl)-5-methyl-4H-1,2,4-triazol-4-yl]-2-(2-methoxyethoxy)pyridine] | 0.0138

Source: patent US20080214622A1, “Substituted Triazole Derivatives As Oxytocin Antagonists” (priority 2005, published 2008)
